# According to patent US12600696B2 (XENIOPRO GMBH, priority 2017, dated 2026):
# Test system: Notch signaling (hNotch1ΔE, human Notch1 receptor) in HeLa cells
# Experiment: Notch reporter assay (luciferase luminescence readout in transfected HeLa cells)
# Assay type: cell-based
# Details: Homo sapiens, 20 hours, relative to DMSO baseline level of 1.0, read-out: AVEw, weighted arithmetic mean of double-normalized Notch-reporter luciferase luminescence values (Activity Range)
# Method in brief: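 HeLa cells were transiently transfected for 24 h with membrane-tethered constitutively active hNotch1ΔE, a CSL-promoter Firefly luciferase reporter and constitutive SV40-Renilla luciferase. Compounds were then applied at 10 μM (0.1% DMSO) for 20 h. Firefly/Renilla dual-luciferase ratios were normalized to DMSO control (baseline 1.0), outliers were excluded, and replicate values were averaged across ≥3 independent experiments.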
row,Structure (SMILES),fold induction at 10 µM
1,"NC(=O)c1ccc(Oc2ccc(C3CC4CCC3C4)cc2)cc1 (racemic) [Compound 159, (±)-4-(4-(Bicyclo[2.2.1]heptan-2-yl)phenoxy)benzamide]",1.1 to 1.2
2,"CCCc1ccc(Oc2ccc(C(=O)NO)cc2)cc1 [Compound 166, N-hydroxy-4-(4-propylphenoxy)benzamide]",1.2 to 1.3
3,"CCC(C)(C)c1ccc(Oc2ccc(C(=O)NO)cc2)cc1 [Compound 171, N-hydroxy-4-(4-(tert-pentyl)phenoxy)benzamide]",1.1 to 1.2
4,"O=C(NO)c1ccc(Oc2ccc(C3CCCCC3)cc2)cc1 [Compound 182, 4-(4-cyclohexylphenoxy)-N-hydroxybenzamide]",1.3 to 1.4
5,"O=C(NO)c1ccc(Oc2ccc(C34CC5CC(CC(C5)C3)C4)cc2)cc1 [Compound 186, 4-(4-(Adamantan-1-yl)phenoxy)-N-hydroxybenzamide]",≥ 2
6,"CC(C)c1ccc(Oc2ccc(C(=O)NO)cn2)cc1 [Compound 272, N-hydroxy-6-(4-isopropylphenoxy)nicotinamide]",1.7 to 2
7,"CCC(C)(C)c1ccc(Oc2ccc(C(=O)NO)cn2)cc1 [Compound 273, N-hydroxy-6-(4-(tert-pentyl)phenoxy)nicotinamide]",1.2 to 1.3
8,"O=C(NO)c1ccc(Oc2ccc(C3CCCCC3)cc2)nc1 [Compound 284, 6-(4-Cyclohexylphenoxy)-N-hydroxynicotinamide]",1.7 to 2
9,"O=C(NO)c1ccc(Oc2ccc(C3CC4CCC3CC4)cc2)nc1 (stereo not drawn) [Compound 287, 6-(4-((1s,4s)-bicyclo[2.2.2]octan-2-yl)phenoxy)-N-hydroxynicotinamide]",1.1 to 1.2
10,"O=C(NO)c1ccc(Oc2ccc(C34CC5CC(CC(C5)C3)C4)cc2)nc1 [Compound 288, 6-(4-((3r,5r,7r)-adamantan-1-yl)phenoxy)-N-hydroxynicotinamide]",1.7 to 2
11,"CNC(=O)c1ccc(Oc2ccc(C(F)(F)F)cc2)nc1 [Compound 300, N-methyl-6-(4-(trifluoromethyl)phenoxy)nicotinamide]",1.1 to 1.2
12,"CN(C)C(=O)c1ccc(Oc2ccc(C3CCCCC3)cc2)nc1 [Compound 334, 6-(4-cyclohexylphenoxy)-N,N-dimethylnicotinamide]",1.3 to 1.4
13,"O=C(NO)c1ccc(Oc2ccc(C34CC5CC(CC(C5)C3)C4)cc2)c(F)c1 [Compound 544, 4-(4-(Adamantan-1-yl)phenoxy)-3-fluoro-N-hydroxybenzamide]",1.4 to 1.7
14,"O=C(NO)c1cnc(Oc2ccc(C3CCCCC3)cc2)c(F)c1 [Compound 644, 6-(4-Cyclohexylphenoxy)-5-fluoro-N-hydroxynicotinamide]",1.1 to 1.2
15,"Oc1ccc(C=Cc2cc(O)cc(O)c2)cc1 [RES, resveratrol, reference compound]",1.5
